# Assay results published in patent US4695545A, “Culture and process for producing A41030 antibiotics” (Eli Lilly and Company, priority 1984, dated 1987).
# Assays:
# [1] = Electrometric titration (pKa); format: physicochemical; conditions: electrometric titration in 66% dimethylformamide in water; stated as possible
# Excerpt: Antibiotic A41030 factor A is a white, crystalline solid.
# [2] = Solubility in solvents; format: physicochemical; conditions: qualitative
# Excerpt: As many as seven antibiotic factors are recovered from the fermentation and are obtained as a mixture, the A41030 complex. It will be recognized that the ratio of the factors in the A41030 complex will vary, depending upon the fermentation conditions used. The individual factors A, B, C, D, E, F, and G are separated and isolated as individual compounds, as hereinafter described.
# [3] = test system: Clostridium difficile; test: MIC anaerobic bacteria, agar-dilution; format: cell-based; conditions: Clostridium difficile 2994; agar-dilution (Table 9)
# [4] = test system: Clostridium perfringens; format: cell-based; conditions: Clostridium perfringens 81; agar-dilution
# [5] = test system: Clostridium septicum; test: MIC anaerobic bacteria, agar-dilution; format: cell-based; conditions: Clostridium septicum 1128
# [6] = test system: Eubacterium aerofaciens; test: MIC anaerobic bacteria, agar-dilution; format: cell-based; conditions: Eubacterium aerofaciens 1235
# [7] = test system: Peptococcus asaccharolyticus; test: MIC anaerobic bacteria, agar-dilution; format: cell-based; conditions: Peptococcus asaccharolyticus 1302
# [8] = test system: Peptococcus prevoti; test: MIC anaerobic bacteria, agar-dilution; format: cell-based; conditions: Peptococcus prevoti 1281
# [9] = test system: Peptostreptococcus anaerobius; test: MIC anaerobic bacteria, agar-dilution; format: cell-based; conditions: Peptostreptococcus anaerobius 1428
# [10] = test system: Peptostreptococcus intermedius; test: MIC anaerobic bacteria, agar-dilution; format: cell-based; conditions: Peptostreptococcus intermedius 1264
# [11] = test system: Propionibacterium acnes; test: MIC anaerobic bacteria, agar-dilution; format: cell-based; conditions: Propionibacterium acnes 79; agar-dilution (Table 9)
# [12] = test system: Bacteroides fragilis; test: MIC anaerobic bacteria, agar-dilution; format: cell-based
# [13] = test system: Bacteroides thetaiotaomicron; test: MIC anaerobic bacteria, agar-dilution; format: cell-based; conditions: Bacteroides thetaiotaomicron 1438
# [14] = test system: Bacteroides melaninogenicus; test: MIC anaerobic bacteria, agar-dilution; format: cell-based
# [15] = test system: Bacteroides vulgatis; test: MIC anaerobic bacteria, agar-dilution; format: cell-based; conditions: Bacteroides vulgatis 1211
# [16] = test system: Bacteroides corrodens; test: MIC anaerobic bacteria, agar-dilution; format: cell-based; conditions: Bacteroides corrodens 1874
# [17] = test system: Fusobacterium symbiosum; test: MIC anaerobic bacteria, agar-dilution; format: cell-based; conditions: Fusobacterium symbiosum 1470
# [18] = test system: Fusobacterium necrophorum; test: MIC anaerobic bacteria, agar-dilution; format: cell-based; conditions: Fusobacterium necrophorum 6054A
# [19] = test system: Clostridium difficile; test: MIC against Clostridium difficile strains, agar-dilution; format: cell-based
# Excerpt: The A41030 antibiotic factors A, B, C, D, E, F, and G, are also active against a number of strains of Clostridium difficile, as determined by the agardilution method.
# [20] = test system: Staphylococcus aureus; test: MIC aerobic bacteria, standard agar-dilution assay; format: cell-based; conditions: Staphylococcus aureus S13E; agar-dilution, 24 hours
# [21] = test system: Staphylococcus epidermidis; test: MIC aerobic bacteria, standard agar-dilution assay; format: cell-based
# [22] = test system: Streptococcus pyogenes; test: MIC aerobic bacteria, standard agar-dilution assay; format: cell-based; conditions: Streptococcus pyogenes C203, 24 hours
# [23] = test system: Streptococcus pneumoniae; test: MIC aerobic bacteria, standard agar-dilution assay; format: cell-based; conditions: Streptococcus pneumoniae Park I, 24 hours
# [24] = test system: Streptococcus sp. Group D; test: MIC aerobic bacteria, standard agar-dilution assay; format: cell-based
# [25] = test system: Haemophilus influenzae; test: MIC aerobic bacteria, standard agar-dilution assay; format: cell-based
# [26] = test system: Escherichia coli; test: MIC aerobic bacteria, standard agar-dilution assay; format: cell-based; conditions: Escherichia coli TEM, 24 hours
# [27] = Bacteroides melaninogenicus 2736
# [28] = Staphylococcus epidermidis EPI1, 24 hours
# [29] = Streptococcus sp. Group D 9960, 24 hours
# [30] = Streptococcus sp. Group D X66, 24 hours
# [31] = Haemophilus influenzae 76, 24 hours
# [32] = Haemophilus influenzae C.L., 24 hours
substance,measurement,setting,value
A41030 factor E,possibly additional pKa's,[1],> 10
same,solubility (solvents),[2],soluble in the same solvents as factor A
same,MIC,[3],0.5 µg/mL
same,MIC,[4],1.0 µg/mL
same,MIC,[5],0.5 µg/mL
same,MIC,[6],0.5 µg/mL
same,MIC,[7],≤ 0.25 µg/mL
same,MIC,[8],32 µg/mL
same,MIC,[9],32 µg/mL
same,MIC,[10],32 µg/mL
same,MIC,[11],0.5 µg/mL
same,MIC,[12]; Bacteroides fragilis 111,64 µg/mL
same,MIC,[12]; Bacteroides fragilis 1877,32 µg/mL
same,MIC,[12]; Bacteroides fragilis 1936B,64 µg/mL
same,MIC,[13],64 µg/mL
same,MIC,[14]; [27],32 µg/mL
same,MIC,[15],32 µg/mL
same,MIC,[16],64 µg/mL
same,MIC,[17],1.0 µg/mL
same,MIC,[18],0.5 µg/mL
same,MIC,[19]; Clostridium difficile 78,0.5 µg/mL
same,MIC,[19]; Clostridium difficile 107B,0.5 µg/mL
same,MIC,[19]; Clostridium difficile 111F,0.5 µg/mL
same,MIC,[19]; Clostridium difficile 1153,1.0 µg/mL
same,MIC,[19]; Clostridium difficile 2634,1.0 µg/mL
same,MIC,[19]; Clostridium difficile 3424-5B,0.5 µg/mL
same,MIC,[19]; Clostridium difficile 3816,0.5 µg/mL
same,MIC,[19]; Clostridium difficile 3950D,0.5 µg/mL
same,MIC,[19]; Clostridium difficile 6890,0.5 µg/mL
same,MIC,[19]; Clostridium difficile 8484,0.5 µg/mL
same,MIC,[19]; Clostridium difficile A-194,0.5 µg/mL
same,MIC,[19]; Clostridium difficile A-195,0.5 µg/mL
same,MIC,[19]; Clostridium difficile A-196,1.0 µg/mL
same,MIC,[19]; Clostridium difficile A-279,0.5 µg/mL
same,MIC,[19]; Clostridium difficile A-280,0.5 µg/mL
same,MIC,[19]; Clostridium difficile A-281,1.0 µg/mL
same,MIC,[19]; Clostridium difficile WAL-2112,0.5 µg/mL
same,MIC,[19]; Clostridium difficile WAL-3657,0.5 µg/mL
same,MIC,[19]; Clostridium difficile WAL-4268,0.5 µg/mL
same,MIC,[20],0.25 µg/mL
same,MIC,[21]; [28],0.25 µg/mL
same,MIC,[22],0.25 µg/mL
same,MIC,[23],0.25 µg/mL
same,MIC,[24]; [29],1 µg/mL
same,MIC,[24]; [30],1 µg/mL
same,MIC,[25]; [31],8 µg/mL
same,MIC,[25]; [32],8 µg/mL
A41030 factor F,possibly additional pKa's,[1],> 10
same,solubility (solvents),[2],soluble in the same solvents as factor A
same,MIC,[3],1.0 µg/mL
same,MIC,[4],1.0 µg/mL
same,MIC,[5],1.0 µg/mL
same,MIC,[6],1.0 µg/mL
same,MIC,[7],≤ 0.25 µg/mL
same,MIC,[8],32 µg/mL
same,MIC,[9],32 µg/mL
same,MIC,[10],1.0 µg/mL
same,MIC,[11],1.0 µg/mL
same,MIC,[12]; Bacteroides fragilis 111,32 µg/mL
same,MIC,[12]; Bacteroides fragilis 1877,32 µg/mL
same,MIC,[12]; Bacteroides fragilis 1936B,32 µg/mL
same,MIC,[13],64 µg/mL
same,MIC,[14]; [27],1.0 µg/mL
same,MIC,[15],32 µg/mL
same,MIC,[16],32 µg/mL
same,MIC,[17],1.0 µg/mL
same,MIC,[18],1.0 µg/mL
same,MIC,[19]; Clostridium difficile 78,1.0 µg/mL
same,MIC,[19]; Clostridium difficile 107B,1.0 µg/mL
same,MIC,[19]; Clostridium difficile 111F,2 µg/mL
same,MIC,[19]; Clostridium difficile 1153,2 µg/mL
same,MIC,[19]; Clostridium difficile 2634,2 µg/mL
same,MIC,[19]; Clostridium difficile 3424-5B,1.0 µg/mL
same,MIC,[19]; Clostridium difficile 3816,1.0 µg/mL
same,MIC,[19]; Clostridium difficile 3950D,1.0 µg/mL
same,MIC,[19]; Clostridium difficile 6890,1.0 µg/mL
same,MIC,[19]; Clostridium difficile 8484,1.0 µg/mL
same,MIC,[19]; Clostridium difficile A-194,1.0 µg/mL
same,MIC,[19]; Clostridium difficile A-195,1.0 µg/mL
same,MIC,[19]; Clostridium difficile A-196,2 µg/mL
same,MIC,[19]; Clostridium difficile A-279,1.0 µg/mL
same,MIC,[19]; Clostridium difficile A-280,1.0 µg/mL
same,MIC,[19]; Clostridium difficile A-281,2 µg/mL
same,MIC,[19]; Clostridium difficile WAL-2112,1.0 µg/mL
same,MIC,[19]; Clostridium difficile WAL-3657,1.0 µg/mL
same,MIC,[19]; Clostridium difficile WAL-4268,1.0 µg/mL
same,MIC,[20],1 µg/mL
same,MIC,[21]; [28],0.25 µg/mL
same,MIC,[22],2 µg/mL
same,MIC,[23],2 µg/mL
same,MIC,[24]; [29],4 µg/mL
same,MIC,[24]; [30],4 µg/mL
same,MIC,[25]; [31],32 µg/mL
same,MIC,[25]; [32],32 µg/mL
A41030 factor D,possibly additional pKa's,[1],> 10
same,solubility (solvents),[2],soluble in the same solvents as factor A
same,MIC,[3],0.5 µg/mL
same,MIC,[4],0.5 µg/mL
same,MIC,[5],0.25 µg/mL
same,MIC,[6],0.5 µg/mL
same,MIC,[8],0.25 µg/mL
same,MIC,[9],0.5 µg/mL
same,MIC,[10],1.0 µg/mL
same,MIC,[11],0.25 µg/mL
same,MIC,[12]; Bacteroides fragilis 111,32 µg/mL
same,MIC,[12]; Bacteroides fragilis 1877,32 µg/mL
same,MIC,[12]; Bacteroides fragilis 1936B,32 µg/mL
same,MIC,[13],32 µg/mL
same,MIC,[14]; Bacteroides melaninogenicus 1856/28,> 64 µg/mL
same,MIC,[14]; [27],0.5 µg/mL
same,MIC,[15],32 µg/mL
same,MIC,[16],32 µg/mL
same,MIC,[17],0.5 µg/mL
same,MIC,[19]; Clostridium difficile 78,≤ 0.25 µg/mL
same,MIC,[19]; Clostridium difficile 107B,≤ 0.25 µg/mL
same,MIC,[19]; Clostridium difficile 111F,≤ 0.25 µg/mL
same,MIC,[19]; Clostridium difficile 1153,1.0 µg/mL
same,MIC,[19]; Clostridium difficile 2634,0.5 µg/mL
same,MIC,[19]; Clostridium difficile 3424-5B,0.5 µg/mL
same,MIC,[19]; Clostridium difficile 3816,0.5 µg/mL
same,MIC,[19]; Clostridium difficile 3950D,0.5 µg/mL
same,MIC,[19]; Clostridium difficile 6890,0.5 µg/mL
same,MIC,[19]; Clostridium difficile 8484,≤ 0.25 µg/mL
same,MIC,[19]; Clostridium difficile A-194,≤ 0.25 µg/mL
same,MIC,[19]; Clostridium difficile A-195,≤ 0.25 µg/mL
same,MIC,[19]; Clostridium difficile A-196,0.5 µg/mL
same,MIC,[19]; Clostridium difficile A-279,≤ 0.25 µg/mL
same,MIC,[19]; Clostridium difficile A-280,≤ 0.25 µg/mL
same,MIC,[19]; Clostridium difficile A-281,0.5 µg/mL
same,MIC,[19]; Clostridium difficile WAL-2112,≤ 0.25 µg/mL
same,MIC,[19]; Clostridium difficile WAL-3657,≤ 0.25 µg/mL
same,MIC,[19]; Clostridium difficile WAL-4268,≤ 0.25 µg/mL
same,MIC,[20],0.25 µg/mL
same,MIC,[21]; [28],0.25 µg/mL
same,MIC,"[21]; Staphylococcus epidermidis EPI2, 24 hours",1 µg/mL
same,MIC,[22],0.5 µg/mL
same,MIC,[23],0.5 µg/mL
same,MIC,[24]; [29],1 µg/mL
same,MIC,[24]; [30],1 µg/mL
same,MIC,[25]; [31],8 µg/mL
same,MIC,[25]; [32],8 µg/mL
same,MIC,[26],64 µg/mL
